Laboratory results reported in US9447055B1, “α-amino esters of hydroxypropylthiazolidine carboxamide derivative and salt form, crystal polymorph thereof” (Merck Serono S.A., priority 2016, dated 2016).
Values after ≈ are worked out from the molar mass of the structure shown. “Also recorded” adds a separate entry of the source.

Key:
[1] = molecular target: human FP-R (Homo sapiens (Human), UniProt P43088); experiment: competitive radioligand binding, recombinant FP receptor expressed in HEK293-EBNA cells
Procedure: The potency of inhibition of compound I and compound II on prostaglandin F2α receptor was assessed by analyzing the affinity of these compounds for recombinant FP receptor expressed in HEK293-EBNA cells.

[2] = solubility in water and simulated intestinal media; assay type: physicochemical
[3] = tested on: other prostaglandin receptor subtypes; conditions: FP over other subtypes
Procedure: (§1) Selectivity of compound II was tested against all eight prostaglandin receptor subtypes.

[4] = molecular target: prostaglandin E receptor 2 (EP2) (Homo sapiens (Human), UniProt P43116); conditions: FP over EP2
Procedure: as §1

[5] = molecular target: human FP (Homo sapiens (Human), UniProt P43088); experiment: IP3 synthesis in FP-transfected HEK293-EBNA cells; assay type: cell-based
Procedure: The functional characterization of compound II on human FP was performed in transfected HEK293-EBNA cells.

[6] = tested on: spontaneous uterine contractions; experiment: spontaneous uterine activity in late-term anaesthetized pregnant rat; assay type: in vivo; conditions: late-term pregnant rats; for reduction of spontaneous uterine contractions: i.v. or oral, maximal effect at 30 mg/kg i.v. and 60 mg/kg oral; for intravenous activity compared with atosiban: i.v.
Excerpt: The tocolytic effects of compound I and compound II were investigated in a model of spontaneous uterine activity in late-term (19-21 days of gestation) anaesthetized pregnant rat (Kawarabayashi et al. Am. J. Obstet. Gynecol. 175:1348-1355 (1996) and Shinkai et al. J. Pharm. Pharmacol. 52:1417-1423 (2000)). Briefly, late-term pregnant female rats were anaesthetized with urethane. One pregnant uterine horn was exposed and a polyethylene catheter bearing on the tip a latex balloon filled with saline was inserted into the lumen. The catheter was connected to an amplifying/recording system via a pressure-transducer. […] For the i.v. administration the uterine contractile activity was quantified by calculating the AUC during the 10 min injection period. The percent variation of the AUC values relative to the spontaneous uterine response observed after each compound administration was calculated in comparison to the value recorded before the first dose-administration (basal value). The effect of compound I or compound II was evaluated by comparing pre- and post-treatment luminal uterine pressure values. For the oral administration the same computation procedure was applied at different time points after treatment. Statistical differences between treatment groups at each time-point were determined by using one-way ANOVA followed by Tukey test. Both compounds intravenously or orally administered were able to markedly reduce spontaneous uterine contractions by around 40-50% (maximal effect obtained at 30 mg/kg by i.v. route and 60 mg/kg by oral route).

[7] = tested on: Caco-2 cell monolayer; experiment: bidirectional permeability across Caco-2 cell monolayers; assay type: in vitro ADME, human; conditions: for efflux: bi-directional
Procedure: (§2) Compound I was dissolved in HBSS buffer (1% DMSO final concentration) at the concentrations of 1.5, 3 and 6 μM. Each concentration/sampling time was run in duplicate well. The test was performed in a gradient pH: the apical compartment (mucosal) was at pH 6.5, the basolateral compartment (serosal) was at pH 7.4.
Apical to basolateral (A→B, mucosal to serosal) transport: 200 μL of each concentration of compound I was added to the apical compartment and 400 μL of HBSS was added to the basolateral compartment. The plates were incubated at 37° C. An aliquot of the basolateral compartment was sampled after 60 and 120 min (t=60 and t=120). An aliquot of the apical compartment was sampled at the starting time (t=0) and after 120 min. (t=120).
Basolateral to apical (B→A, serosal to mucosal) transport: 400 μL of each concentration of compound I was added to the basolateral compartment and 200 μL of HBSS was added to the apical compartment. The plates were incubated at 37° C. An aliquot of the apical compartment was sampled after 60 and 120 min (t=60 and t=120). An aliquot of the basolateral compartment was sampled at the starting time (t=0) and after 120 min. (t=120). All samples were analyzed by LC/MS monitoring both compound I and the appearance of compound II.
Compound II was dissolved in HBSS buffer (1% DMSO final concentration) at the concentrations of 1.5, 3 and 6 μM. Each concentration/sampling time was run in duplicate well. The test was performed in a gradient pH: the apical compartment (mucosal) was at pH 6.5, the basolateral compartment (serosal) was at pH 7.4.
Apical to basolateral (A→B, mucosal to serosal) transport: 200 μL of each concentration of compound II was added to the apical compartment and 400 μL of HBSS was added to the basolateral compartment. The plates were incubated at 37° C. An aliquot of the basolateral compartment was sampled after 60 and 120 min (t=60 and t=120). An aliquot of the apical compartment was sampled at the starting time (t=0) and after 120 min. (t=120).
Basolateral to apical (B→A, serosal to mucosal) transport: 400 μL of each concentration of compound II was added to the basolateral compartment and 200 μL of HBSS was added to the apical compartment. The plates were incubated at 37° C. An aliquot of the apical compartment was sampled after 60 and 120 min (t=60 and t=120). An aliquot of the basolateral compartment was sampled at the starting time (t=0) and after 120 min. (t=120). All samples were analyzed by LC/MS monitoring compound II.

[8] = stability in HBSS transport buffer; assay type: in vitro ADME; conditions: 37° C., 60 and 120 minutes
Procedure: Stability of both compound I and compound II was assessed during the test. These compounds were dissolved in HBSS buffer (1% DMSO final concentration) at the concentrations of 1.5, 3 and 6 μM. An aliquot of each solution was sampled at time zero (t=0) to assess the starting concentrations of the compounds. The solutions were incubated at 37° C. for the duration of the transport experiment. An aliquot of each solution was sampled at the end of experiment (t=120) to assess the final concentrations of compound I and compound II. Samples were analyzed by LC-MS.

[9] = tested on: panel of 50 receptors, channels and enzymes binding sites; conditions: 1 μM
[10] = moisture sorption/desorption and relative humidity stability of salts; assay type: physicochemical; conditions: for hygroscopicity: moisture balance data, hydrochloride
Procedure: Moisture sorption/desorption (MB) data were collected on a VTI SGA-100 Vapor Sorption Analyzer. Sorption and desorption data were collected over a range of 5% to 95% relative humidity (RH) at 10% RH intervals under a nitrogen purge. Samples were not dried prior to analysis. Equilibrium criteria used for analysis were less than 0.0100% weight change in 5 minutes, with a maximum equilibration time of 3 hours if the weight criterion was not met. Data were not corrected for the initial moisture content of the samples. NaCl and PVP were used as calibration standards.

[11] = aqueous solubility of compound I salts; assay type: physicochemical; conditions: water
[12] = in vivo conversion of compound I to compound II; conditions: following gastrointestinal tract administration
Procedure: The invention is based on the discovery that compound I ((3S)-3-({[(2S)-3-(biphenyl-4-ylsulfonyl)-1,3-thiazolidin-2-yl]carbonyl}-amino)-3-(4-fluorophenyl)propyl L-valinate, represented by formula I, below) and salts thereof are converted in vivo to 3-([1,1′-biphenyl]-4-ylsulfonyl)-N-[1-(4-fluorophenyl)-3-hydroxypropyl]-1,3-thiazolidine-2-carboxamide (represented by formula II, below).
Compound II is a competitive and reversible prostaglandin F2α receptor antagonist (human FP2α receptor Ki=6 nM) that is under development for the management of pre-term labor by inhibition of premature uterine contractions.

[13] = molecular target: PepT1 transporter (Homo sapiens (Human), UniProt P46059); experiment: mucosal-to-serosal Caco-2 transport after Gly-Sar pre-treatment; assay type: in vitro ADME; conditions: 10 mM Gly-Sar pre-treatment; for compound I passage to receiving compartment after Gly-Sar pre-treatment: A→B
Procedure: The differentiated cells were pre-treated for 30 min. with 10 mM of Gly-Sar in order to block the active transporter PepT1.
as §2
Apical to basolateral (A→B, mucosal to serosal) transport: 200 μL of each concentration of compound I was added to the apical compartment and 400 μL of HBSS was added to the basolateral compartment. The plates were incubated at 37° C. An aliquot of the basolateral compartment was sampled after 60 and 120 min (t=60 and t=120). An aliquot of the apical compartment was sampled at the starting time (t=0) and after 120 min. (t=120). All samples were analyzed by LC/MS monitoring both compound I and the appearance of compound II.

[14] = non-specific binding to cell-free transwells; assay type: in vitro ADME
Procedure: Non-specific binding and recovery was assessed across cell-free transwells.
Compound I was tested at 1.5, 3 and 6 μM in duplicate cell-free transwells. The test was performed in a pH gradient between the apical and the basolateral compartment. […] The following sampling times were performed: 60 and 120 min for the basolateral compartment (receiver) and 120 min for the apical compartment (donor). Samples obtained were analyzed by LC-MS, both compound I and compound II were monitored in order to assess percent of recovery.

[15] = FaSSIF pH 6.5, read-out: Solubility in FaSSIF
[16] = FeSSIF pH 5.0, read-out: Solubility in FeSSIF
[17] = water, read-out: Solubility in water

Sequence of human FP-R (P43088 whole entry): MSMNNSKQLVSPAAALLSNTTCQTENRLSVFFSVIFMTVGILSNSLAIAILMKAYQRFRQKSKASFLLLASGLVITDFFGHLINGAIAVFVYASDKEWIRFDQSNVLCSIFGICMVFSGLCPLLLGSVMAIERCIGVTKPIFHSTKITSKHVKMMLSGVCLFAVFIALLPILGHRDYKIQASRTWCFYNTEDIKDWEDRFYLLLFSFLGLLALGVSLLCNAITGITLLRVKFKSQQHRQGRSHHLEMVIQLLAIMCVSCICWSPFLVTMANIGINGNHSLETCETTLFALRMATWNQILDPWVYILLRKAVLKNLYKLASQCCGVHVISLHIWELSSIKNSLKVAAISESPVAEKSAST
Sequence of human FP (P43088 whole entry): as above
Sequence of prostaglandin E receptor 2 (EP2) (P43116 whole entry): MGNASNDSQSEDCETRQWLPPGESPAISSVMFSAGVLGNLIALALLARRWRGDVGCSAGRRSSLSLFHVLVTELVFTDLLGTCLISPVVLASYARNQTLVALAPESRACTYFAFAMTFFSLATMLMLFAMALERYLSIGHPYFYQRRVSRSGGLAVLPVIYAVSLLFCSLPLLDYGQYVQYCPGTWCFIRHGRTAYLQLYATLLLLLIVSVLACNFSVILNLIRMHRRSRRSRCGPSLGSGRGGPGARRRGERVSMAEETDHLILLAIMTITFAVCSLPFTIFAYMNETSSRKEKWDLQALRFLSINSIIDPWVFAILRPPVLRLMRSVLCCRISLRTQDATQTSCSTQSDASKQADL

O=C(N[C@@H](CCO)c1ccc(F)cc1)[C@@H]1SCCN1S(=O)(=O)c1ccc(-c2ccccc2)cc1 (stereo in doubt) [Compound II, 3-([1,1′-biphenyl]-4-ylsulfonyl)-N-[1-(4-fluorophenyl)-3-hydroxypropyl]-1,3-thiazolidine-2-carboxamide]
Ki [1]: 6 nM | solubility [2, 15]: 0.4 µg/mL (≈ 0.799 µM) | solubility [2, 16]: 10 µg/mL (≈ 20 µM) | solubility [2, 17]: 0.4 µg/mL (≈ 0.799 µM) | Selectivity against other prostaglandin receptors [3]: higher than 100 fold | Selectivity versus prostaglandin E receptor 2 (EP2) [4]: approximately 10 fold | IC50 ([5]; FP/HEK293-EBNA cells, read-out: inhibition of synthesis of IP3, IC50): 60 nM | agonist activity: synthesis of IP3 when added alone ([5]; tested up to 10 μM, added alone): did not induce any synthesis of IP3 | reduction of spontaneous uterine contractions [6]: 40-50% | intravenous activity compared with atosiban [6]: comparable or slightly higher than that of the tocolytic drug atosiban | passive passage through the Caco-2 monolayer [7]: good passive passage | passage apical to basolateral ([7]; A→B): good percentage of passage | permeability basolateral to apical ([7]; B→A): low rate of permeability | efflux [7]: No efflux was detected | efflux ([7]; listed as compound II): Evidence was not found that compound II might be a substrate for an efflux transporter | stability in HBSS buffer [8]: stable | Selectivity in panel of 50 receptors, channels and enzymes binding sites [9]: high selectivity for FP

CC(C)[C@H](N)C(=O)OCC[C@H](NC(=O)[C@@H]1SCCN1S(=O)(=O)c1ccc(-c2ccccc2)cc1)c1ccc(F)cc1.Cl [Compound III, (3S)-3-({[(2S)-3-(biphenyl-4-ylsulfonyl)-1,3-thiazolidin-2-yl]carbonyl}-amino)-3-(4-fluorophenyl)propyl L-valinate hydrochloride]
deliquescence ([10]; 2 days at approximately 95% RH): did not deliquesce | weight loss upon desorption ([10]; desorption after sorption to 95% RH): approximately 0.7% | weight gain on sorption ([10]; from 5 to 95% relative humidity): Approximately 0.9% | hygroscopicity [10]: low hygroscopicity | hygroscopicity ([10]; listed as chloride salt): non-hygroscopic | hygroscopicity ([10]; listed as hydrochloride salt): low hygroscopicity; also recorded: non-hygroscopic | solubility [11]: < 1000 µg/mL

CC(C)[C@H](N)C(=O)OCC[C@H](NC(=O)[C@@H]1SCCN1S(=O)(=O)c1ccc(-c2ccccc2)cc1)c1ccc(F)cc1 [Compound I, (3S)-3-({[(2S)-3-(biphenyl-4-ylsulfonyl)-1,3-thiazolidin-2-yl]carbonyl}-amino)-3-(4-fluorophenyl)propyl L-valinate]
Ki [1]: 1 nM | solubility [2, 15]: 70 µg/mL (≈ 117 µM) | solubility [2, 16]: 90 µg/mL (≈ 150 µM) | solubility [2, 17]: 380 µg/mL (≈ 634 µM) | reduction of spontaneous uterine contractions [6]: 40-50% | intravenous activity compared with atosiban [6]: comparable or slightly higher than that of the tocolytic drug atosiban | conversion to compound II [12]: rapidly converted to compound II | compound I in basolateral (receiving) compartment, apical to basolateral ([7]; A→B, 60 and 120 minutes, 1.5, 3 and 6 μM): not detected | compound I in apical (receiving) compartment, basolateral to apical ([7]; B→A, 60 and 120 minutes): not detected | recovery of compound I in apical compartment at end of apical to basolateral experiment ([7]; apical compartment, 120 min): primarily recovered in the form of the de-esterified variant, compound II; also recorded: low recovery | passage through the Caco-2 cell monolayer ([7]; bi-directional permeability test): did not pass through the cell monolayer | PepT1 mediation of transport [13]: likely not mediated by PepT1 | compound I passage to receiving compartment after Gly-Sar pre-treatment [13]: not detected | compound I passage to receiving compartment after Gly-Sar pre-treatment ([13]; listed as compound I): no passage | stability in HBSS buffer [8]: stable | non-specific binding ([14]; cell-free transwells, 1.5, 3 and 6 μM): excluded | detection in basolateral compartment of cell-free transwell ([14]; cell-free transwells, any dose tested): not detected
